# From patent US7008621B2, “Regulation of apoptosis in aquatic organisms by aquabirnavirus” (Academia Sinica, priority 1999, dated 2006)
# Entries after “also recorded” stand apart in the source; their conditions may differ.
# Legend:
# [1] = test system: CHSE-214-EGFP cells infected with IPNV; test: EGFP release (membrane integrity) Western blot after drug pre-treatment and IPNV infection; assay type: cell-based, Chinook salmon; conditions: 16 h
# Method: Protein synthesis inhibitors, serine proteinase inhibitors, tyrosine kinase inhibitors, and a cation chelator were added to CHSE-214-EGFP cells before infection with IPNV (MOI of 1). After infection, the cells were incubated for 16 h. Samples were electrophoresed on a 12% SDS-polyacrylamide gel and electroblotted to a nitrocellulose membrane. Antigen-specific signals were detected with either rabbit anti-GFP serum (A and C) or a mouse IgG monoclonal antibody directed against actin (B). The chemiluminescent signal was imaged on Kodak XAR-5 film by using a 5-min (A), a 1-min (B), or a 30-min (C) exposure. (A) Lanes: 1, 0.2 μg of recombinant wild-type GFP as a positive control; 2, normal CHSE-214-EGFP cell lysate; 3, 30 μg of cell lysate protein corresponding to IPNV infection; 4–9, 30 μg of cell lysate protein corresponding to pre-treatment with cycloheximide (CHX) (100 μg/ml), aprotinin (400 μg/ml), leupeptin (400 μg/ml), genistein (100 μg/ml), tyrphostin (100 μg/ml), and EDTA (2 mM) and then followed by virus infection for 16 h, respectively. (B) The nitrocellulose membrane from panel A was stripped and reprobed with an actin antibody. (C) Lanes: 1, 100 ng of wide-type GFP; 2, 30 μg of supernatant medium protein from normal CHSE-214 cells; 3, 30 μg of supernatant medium protein from IPNV-infected cells at 16 h p.i. 4–9, 30 μg of supernatant medium protein corresponding to treatment with cycloheximide (CHX) (100 μg/ml), aprotinin (400 μg/ml), leupeptin (400 μg/ml), genistein (100 μg/ml), tyrphostin (100 μg/ml), and EDTA (2 mM) and then followed by virus infection for 16 h, respectively.
# About 10^5 cells per ml were seeded on a 60-mm-diameter petri dish and allowed to grow for more than 20 h. The cell monolayers were rinsed twice with phosphate-buffered saline (PBS), after which they were infected at an MOI of 1 and incubated for 0, 2, 4, 6, 8, 10, 12, and 24 h post infection (p.i.). Uninfected control cells were also incubated for the same periods of time. At the end of each incubation time, the culture medium was aspirated. The cells were washed with PBS and then lysed in 0.3 ml of lysis buffer (10 mM Tris base, 20% glycerol, 10 mM sodium dodecyl sulfate [SDS], 2% β-mercaptoethanol, pH 6.8).
# Proteins were separated by SDS-polyacrylamide gel electrophoresis, electroblotted, and subjected to immunodetection as described by Kain et al. (1994), Bio Techniques, 17:982–987. Blots were incubated with a 1:7,500 dilution of an immunoglobulin fraction (Clontech) and a 1:1,500 dilution of a peroxidase-labeled goat anti-rabbit conjugate (Amersham). Chemilumine-scence detection was performed in accordance with the instructions provided with the Western Exposure Chemiluminescent Detection System (Amersham). Chemiluminescent signals were imaged by exposure of Kodak XAR-5 film (Eastman Kodak, Rochester, N.Y.). Stripping and reprobing of the Western blot and removal of the primary and secondary antibodies from blot were achieved by incubation in stripping buffer containing 62.5 mM Tris-HCl (pH 6.8), 3.0% (wt/vol) SDS, and 50 mM 1,4-dithiothreitol for 30 min at 55° C. with gentle shaking. The blot was washed three times in PBS containing 0.1% (vol/vol) Tween 20 for 10 min each time and reprobed with antibodies beginning at the membrane blocking step.
# At the end of the incubation period, cells were harvested and samples were analyzed by Western blotting.
# IPNV E1-S = test: Blocking of viral replication / viral protein expression, Western blot with anti-E1-S virion antiserum; assay type: cell-based, infectious pancreatic necrosis virus; conditions: 16 h
# Method: (§1) After adding protein synthesis inhibitor, serine proteinase inhibitors, tyrosine kinase inhibitors and a cation chelator, CHSE-214-EGFP cells were infected with IPNV (MOI of 1) then incubated for 16 h at 18° C. Samples were electrophoresed on a 12% SDS-polyacrylamide gel and electroblotted to a nitrocellulose membrane. Antigen-specific signals were detected with a rabbit anti-EI-S virion antiserum (A) or with a rabbit anti-human Mcl-1 antiserum (Pharmingen) (B) and with a mouse monoclonal IgG antibody directed against mouse actin (Chemicon) (C). (A) Lane 1, normal CHSE-214 cell lysate; lane 2, IPNV infected cell lysate at 16 h postinfection; lanes 3–8, 30 μg of cell lysate, to which was added cycloheximide (100 μg/ml), aprotinin (400 μg/ml), leupeptin (400 μg/ml), genistein (100 μg/ml), tyrphostin (100 μg/ml) and EDTA (2 mM), followed by IPNV infection and incubated cells for 16 h, respectively. (B,C) The nitrocellulose membrane from (A) was stripped and reprobed with Mcl-1 or an actin antibody, respectively.
# (§2) About 10^5 cells/ml were seeded on a 60-mm. petri dish for growth for more than 20 h. Monolayers were rinsed twice with phosphate-buffered saline (PBS). Control cells or cells that received virus at a MOI of 1 were incubated for 0, 2, 4, 6, 8, 10 and 24 h. At the end of each incubation time the culture medium was aspirated. The cells were washed with PBS and then lysed in 0.3 nil lysis buffer [10 mM Tris base, 20% glycerol, 10 mM sodium dodecyl sulfate (SDS), 2% β-mercaptoethanol (P-ME), pH 6.8].
# (§3) Proteins were separated by SDS-polyacrylamide gel electrophoresis (Laemmli, 1970), electroblotted, and subjected to immunodetection as described by Kain et al. (1994). Blots were incubated with a 1:1500 dilution of anti-human Mcl-1 polyclonal antibodies (Pharmingen) or a 1:7500 dilution of a peroxidase-labeled goat anti-rabbit conjugate (Amershan). Chemi-luminescent detection was performed according to the instructions provided with the Western Exposure Chemiluminescent Dectection System (Amershan). Chemiluminescent signals were imaged by exposure to Kodak XAR-5 film (Eastman Kodak, Rochester, N.Y., USA). Primary (Mcl-1) and secondary antibodies (peroxidase-labeled goat anti-rabbit conjugate) were stripped from blots by incubation in stripping buffer containing 62.5 mM Tris-HCI (pH 6.8), 3.0% (w/v) SDS and 50 mM 1,4-dithiothreitol for 30 min at 55° C. with gentle shaking. The blots were then washed four times for 10 min each time in PBS containing 0.1% (v/v) Tween 20 and reprobed with mouse actin monoclonal antibody (1/1500, Chemicon) and a 1:7500 dilution of a peroxidase-labeled sheep anti-mouse conjugate (Amersham).
# (§4) At the end of the incubation period, cells were harvested and the samples were analyzed by Western blot method.
# [2] = test system: CHSE-214 cells infected with IPNV E1-S; test: DNA internucleosomal cleavage induced by IPNV, agarose gel electrophoresis; assay type: cell-based, Chinook salmon; conditions: 16 h postinfection
# Method: Lane 2: DNA isolated from uninfected CHSE-214 cells as a negative control. Lane 3: cells infected for 16 h with an MOI of 1 of E1-S, respectively, at 16 h postinfection. Lanes 6 and 7: CHSE-214 cells treated with aprotinin (400 μg/ml) in the absence and presence of infection by an MOI of 1 of E1-S, respectively, at 16 h postinfection. Lanes 8 and 9: CHSE-214 cells treated with leupeptin (400 μg/ml) in the absence and presence of infection by an MOI of 1 of E1-S, respectively, at 16 h postinfection. Lanes 10 and 11: CHSE-214 cells treated with genistein (100 μg/ml) in the absence and presence of infection by an MOI of 1 of E1-S, respectively; at 16 h postinfection. Lanes 12 and 13: CHSE-214 cells treated with tyrphostin (100 μg/ml) in the absence and presence of infection by an MOI of 1 of E1-S, respectively, at 16 h postinfection. Lanes 14 and 15: CHSE-214 cells treated with 2 mM EDTA in the absence and presence of infection by an MOI of 1 of E1-S, respectively, at 16 h postinfection. All samples were electrophoresed through 1.2% agarose gels and visualized by ethidium bromide staining. Lane 1 contains the molecular weight marekers used in the gel (1 kb DNA ladder from MBI for sizing linear fragments ranging in size from 500 bp to […]).
# About 10^5 cells per ml were seeded on a 60-mm-diameter petri dish and allowed to grow for more than 20 h. The cell monolayers received virus at an MOI of 1.0 and were incubated for 8 h. Uninfected control cells were also incubated for 8 h. The two groups were used for DNA fragmentation studies. At the end of incubation, the cells were lysed with lysis buffer (10 mM Tris-HCl, 0.25% Triton X-100, 1 mM EDTA, pH 7.4). After treatment with phenol-chloroform-isoamyl alcohol (25:24:1), the DNA was precipitated in the presence of 0.3 M sodium acetate and cold absolute ethanol at −70° C. for 2 h and then resuspended in 10 mM Tris-HCl (pH 7.4)−1 mM EDTA. […]
# Mcl-1 protein = test: Prevention of down-regulation of Mcl-1 protein expression by IPNV, Western blot; assay type: cell-based, Chinook salmon; conditions: 16 h
# Method: as §1, §2, §3, §4
# [3] = 400 μg/ml added before IPNV infection (MOI 1)
# [4] = 400 μg/ml before IPNV infection
molecule,measurement,setting,value
"C[C@@H]1C[C@@H]([C@H](O)CC2CC(=O)NC(=O)C2)C(=O)[C@@H](C)C1 [CHX, cycloheximide]",prevention of EGFP release,[1]; 10 μg/ml added before IPNV infection (MOI 1),completely prevented EGFP release
same,viral replication / viral protein expression,IPNV E1-S; 10 μg/ml added to CHSE-214 cells before IPNV infection,blocked viral protein expression
same,viral replication / viral protein expression,"IPNV E1-S; 10 μg/ml added to CHSE-214 cells before IPNV infection, listed as cyclohexamide",viral replication was prevented
same,induction of DNA internucleosomal cleavage by IPNV,[2]; 10 μg/ml before IPNV infection (MOI 1),blocked the induction of DNA internucleosomal cleavage
same,prevention of down-regulation of Mcl-1 protein expression,Mcl-1 protein; 10 μg/ml before IPNV infection,helped to maintain Mcl-1 expression level
same,prevention of down-regulation of Mcl-1 protein expression,"Mcl-1 protein; 10 μg/ml before IPNV infection, listed as cyclohexamide",partially prevented down-regulation of Mcl-1 protein expression
O=C(O)CN(CCN(CC(=O)O)CC(=O)O)CC(=O)O [EDTA],prevention of EGFP release,[1]; 2 mM added before IPNV infection (MOI 1),completely prevented EGFP release
same,viral replication / viral protein expression,IPNV E1-S; 2 mM added to CHSE-214 cells before IPNV infection,viral replication was prevented; also recorded: blocked viral protein expression
same,induction of DNA internucleosomal cleavage by IPNV,[2]; 2 mM before IPNV infection (MOI 1),minor internucleosomal cleavage; also recorded: blocked the induction of DNA internucleosomal cleavage
same,prevention of down-regulation of Mcl-1 protein expression,Mcl-1 protein; 2 mM before IPNV infection,partially prevented down-regulation of Mcl-1 protein expression; also recorded: helped to maintain Mcl-1 expression level
O=c1c(-c2ccc(O)cc2)coc2cc(O)cc(O)c12 [genistein],prevention of EGFP release,[1]; 100 μg/ml added before IPNV infection (MOI 1),partially prevented EGFP release
same,viral replication / viral protein expression,IPNV E1-S; 100 μg/ml added to CHSE-214 cells before IPNV infection,viral replication was prevented; also recorded: blocked viral protein expression
same,induction of DNA internucleosomal cleavage by IPNV,[2]; 100 μg/ml before IPNV infection (MOI 1),blocked the induction of DNA internucleosomal cleavage
same,prevention of down-regulation of Mcl-1 protein expression,Mcl-1 protein; 100 μg/ml before IPNV infection,partially prevented down-regulation of Mcl-1 protein expression; also recorded: helped to maintain Mcl-1 expression level
CC(=O)N[C@@H](CC(C)C)C(=O)N[C@@H](CC(C)C)C(=O)N[C@H](C=O)CCCNC(=N)N [leupeptin],prevention of EGFP release,[1]; [3],did not prevent EGFP release
same,prevention of down-regulation of Mcl-1 protein expression,Mcl-1 protein; [4],could not
aprotinin,prevention of EGFP release,[1]; [3],did not prevent EGFP release
same,prevention of down-regulation of Mcl-1 protein expression,Mcl-1 protein; [4],could not
